The record followed here is PubChem BioAssay (NCI).

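Each compound was tested at five concentrations against cells in 96-well plates for 48 hours. GI50 = concentration required for 50% inhibition of growth. TGI marks complete inhibition of growth.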

Among the test systems are MALME-3M melanoma; UACC-62 melanoma; NCI-H226 lung; SK-OV-3 ovarian; SF-295 CNS; U251 CNS; CCRF-CEM leukemia; SR leukemia; M14 melanoma; K-562 leukemia.
Holding throughout (test): NCI anticancer screen, dose series, 48 h

On to `N/N=c1\c2ccccc2c2cc3c(cc12)/c(=N/N)c1ccccc13`, for which the TGI with MALME-3M melanoma, in the assay with UACC-62 melanoma, in the assay with NCI-H226 lung, with SK-OV-3 ovarian, with SF-295 CNS and in the assay on U251 CNS was greater than 100 µM throughout. The TGI with CCRF-CEM leukemia, with SR leukemia, with M14 melanoma and with K-562 leukemia was greater than 100 µM in each case.
Turning to `Cc1ccc(NC(=O)/C(Cl)=C(/Cl)C(=O)O)cc1`, the TGI with MALME-3M melanoma was 29.3 µM; in the assay with UACC-62 melanoma, 29.7 µM; with NCI-H226 lung, greater than 100 µM; in the assay on SK-OV-3 ovarian, 35.8 µM; in the assay on SF-295 CNS, 96.8 µM; with U251 CNS, 30.9 µM. The TGI is 5.75 µM with CCRF-CEM leukemia, 53.6 µM in the assay on SR leukemia, 28.7 µM in the assay with M14 melanoma and 23.5 µM in the assay on K-562 leukemia.
On to `COc1ccc(C2=NN(C(=O)c3cc(OC)c(OC)c(OC)c3)C(c3ccc(N(C)C)cc3)C2)cc1` (stereo not drawn), for which the GI50 in the assay with MALME-3M melanoma was 41.6 µM; with UACC-62 melanoma it was 0.496 µM; in the assay with NCI-H226 lung, 1.28 µM; in the assay with SK-OV-3 ovarian it was 0.463 µM; in the assay with SF-295 CNS, 0.339 µM; in the assay on U251 CNS, 0.473 µM. In addition, the GI50 with CCRF-CEM leukemia is 1.8 µM; with SR leukemia, 0.426 µM; with M14 melanoma, 0.496 µM; in the assay on K-562 leukemia it was 0.551 µM. Further, the TGI with MALME-3M melanoma was greater than 100 µM; in the assay on UACC-62 melanoma, greater than 100 µM; in the assay on NCI-H226 lung, greater than 100 µM; with SK-OV-3 ovarian it was 58.2 µM; in the assay with SF-295 CNS, 40.4 µM; in the assay on U251 CNS it was greater than 100 µM. For the same molecule, the results for the TGI in the assay with CCRF-CEM leukemia, in the assay on M14 melanoma and with K-562 leukemia were greater than 27.1 µM, greater than 21 µM and greater than 100 µM, respectively.
For `COc1cc2c(cc1Nc1nc(Nc3cccc(F)c3C(N)=O)c3cc[nH]c3n1)N(C(=O)CN1CCN(C(C)C)CC1)CC2`, the GI50 in the assay on MALME-3M melanoma was 3.17 µM; in the assay on UACC-62 melanoma it was 3.9 µM; in the assay with NCI-H226 lung it was 3.41 µM; with SK-OV-3 ovarian, 3.85 µM; in the assay on SF-295 CNS, 4.32 µM; in the assay on U251 CNS, 3.68 µM. Also, the GI50 was 5.35 µM in the assay with CCRF-CEM leukemia, 1.19 µM in the assay with SR leukemia, 3.99 µM in the assay with M14 melanoma and 4.67 µM in the assay with K-562 leukemia. The TGI with MALME-3M melanoma is 7.06 µM; with UACC-62 melanoma it was 7.74 µM; in the assay on NCI-H226 lung, 7.01 µM; in the assay with SK-OV-3 ovarian, 7.26 µM; in the assay on SF-295 CNS it was 9.26 µM; in the assay on U251 CNS it was 7.09 µM. Further, the TGI worked out at 14.2 µM with CCRF-CEM leukemia, 15.2 µM with SR leukemia, 7.54 µM in the assay with M14 melanoma and 11 µM in the assay on K-562 leukemia.
`CCCCCCCCC(=O)OCC(CS[As](C)C)OC(=O)CCCCCCCC` (stereo not drawn): the GI50 was 0.0531 µM in the assay with MALME-3M melanoma; 0.904 µM with UACC-62 melanoma; 5.81 µM with NCI-H226 lung; 16.5 µM in the assay with SK-OV-3 ovarian; 3.66 µM in the assay with SF-295 CNS; 2.45 µM with U251 CNS. The GI50 in the assay on CCRF-CEM leukemia is 0.396 µM; in the assay with SR leukemia it was 1.03 µM; with M14 melanoma, 0.831 µM; with K-562 leukemia, 0.342 µM. The TGI was 0.708 µM in the assay on MALME-3M melanoma; 15 µM in the assay on UACC-62 melanoma; 25.5 µM with NCI-H226 lung; greater than 67.6 µM in the assay on SK-OV-3 ovarian; 19.4 µM in the assay with SF-295 CNS; 13 µM in the assay with U251 CNS. For the same molecule, the TGI in the assay with CCRF-CEM leukemia was 11.5 µM; in the assay on SR leukemia, 5.41 µM; in the assay on M14 melanoma, 12.7 µM; with K-562 leukemia, 12.9 µM.
In the case of `Cn1c(=O)c(Oc2ccc(F)cc2F)cc2cnc(NC3CCS(=O)(=O)CC3)nc21`, the GI50 is greater than 25 µM with MALME-3M melanoma; greater than 25 µM in the assay on UACC-62 melanoma; greater than 25 µM in the assay on NCI-H226 lung; greater than 20 µM in the assay with SK-OV-3 ovarian; greater than 12.4 µM with SF-295 CNS; greater than 25 µM in the assay with U251 CNS. Besides, the GI50 in the assay on CCRF-CEM leukemia, with SR leukemia, in the assay with M14 melanoma and with K-562 leukemia was greater than 25 µM in each case. Also, the TGI in the assay on MALME-3M melanoma, in the assay with UACC-62 melanoma, in the assay on NCI-H226 lung, with SK-OV-3 ovarian, in the assay on SF-295 CNS and in the assay with U251 CNS was greater than 25 µM each time. In addition, the TGI with CCRF-CEM leukemia, with SR leukemia, in the assay on M14 melanoma and in the assay with K-562 leukemia was greater than 25 µM throughout.
Regarding `COc1ccc2nc3cc(Cl)ccc3c(Sc3ccc([N+](=O)[O-])cc3)c2c1`, the GI50 in the assay with MALME-3M melanoma, in the assay with UACC-62 melanoma, in the assay on NCI-H226 lung, in the assay with SK-OV-3 ovarian, with SF-295 CNS and with U251 CNS was greater than 100 µM in each case. Besides, the GI50 with CCRF-CEM leukemia, in the assay on M14 melanoma and in the assay on K-562 leukemia was greater than 100 µM in each case. The TGI in the assay on MALME-3M melanoma, in the assay with UACC-62 melanoma, with NCI-H226 lung, in the assay on SK-OV-3 ovarian, with SF-295 CNS and in the assay on U251 CNS was greater than 100 µM each time. For the same molecule, the TGI was greater than 100 µM with CCRF-CEM leukemia, greater than 10 µM in the assay on SR leukemia, greater than 100 µM with M14 melanoma and greater than 100 µM in the assay on K-562 leukemia.
As to `c1ccc2c(c1)N=C(c1cccc3ccccc13)CC(c1ccc3c(c1)OCO3)S2` (stereo not drawn), the TGI with MALME-3M melanoma, in the assay on UACC-62 melanoma, with NCI-H226 lung, with SK-OV-3 ovarian, in the assay with SF-295 CNS and with U251 CNS was greater than 100 µM in each case. Also, the TGI in the assay on CCRF-CEM leukemia, in the assay on SR leukemia, with M14 melanoma and in the assay on K-562 leukemia was greater than 100 µM throughout.
For the molecule `CCN(CC)C1CCC(Nc2c(C(C)=O)cnc3ccc(-c4ccc(O)c(Cl)c4)cc23)CC1` (stereo not drawn), the GI50 is 0.941 µM with MALME-3M melanoma; 3.47 µM in the assay with UACC-62 melanoma; 2.16 µM with NCI-H226 lung; 0.931 µM in the assay on SK-OV-3 ovarian; 4.46 µM in the assay with SF-295 CNS; 1.16 µM in the assay on U251 CNS. Moreover, the GI50 in the assay on CCRF-CEM leukemia was 0.385 µM; with SR leukemia it was 0.195 µM; in the assay with M14 melanoma, 0.468 µM; in the assay on K-562 leukemia, 0.125 µM. In addition, the TGI is 16.9 µM with MALME-3M melanoma; 25.4 µM in the assay with UACC-62 melanoma; 22.6 µM with NCI-H226 lung; greater than 44.5 µM with SK-OV-3 ovarian; 24.9 µM with SF-295 CNS; 17 µM in the assay with U251 CNS. Further, the TGI in the assay with CCRF-CEM leukemia worked out at 6.26 µM; with SR leukemia it was 0.72 µM; with M14 melanoma, 15.4 µM; in the assay on K-562 leukemia it was 5.72 µM.
